Measured values: patent US9938260B2, “Soluble guanylate cyclase activators and their use” (GlaxoSmithKline Intellectual Property Development Limited, priority 2014, dated 2018)
Where a name gives a salt, the structure may show the parent alone.

Each molecule was assayed against T1, soluble guanylate cyclase (sGC) (Rattus norvegicus, UniProt P20595) (assay: Biological cellular assay: sGC activity by phosphorylation of VASP in rat aortic smooth muscle cells). Details: primary rat aortic smooth muscle cells, pre-incubated with 10 μM ODQ, 30 min at 37° C., phospho-VASP (pSer239) fluorescent signal; read-out: Cell assay pEC50 (converted).
T1 construct: endogenous in cells; host or cells: primary rat aortic smooth muscle cells
T1 sequence (P20595 1-619): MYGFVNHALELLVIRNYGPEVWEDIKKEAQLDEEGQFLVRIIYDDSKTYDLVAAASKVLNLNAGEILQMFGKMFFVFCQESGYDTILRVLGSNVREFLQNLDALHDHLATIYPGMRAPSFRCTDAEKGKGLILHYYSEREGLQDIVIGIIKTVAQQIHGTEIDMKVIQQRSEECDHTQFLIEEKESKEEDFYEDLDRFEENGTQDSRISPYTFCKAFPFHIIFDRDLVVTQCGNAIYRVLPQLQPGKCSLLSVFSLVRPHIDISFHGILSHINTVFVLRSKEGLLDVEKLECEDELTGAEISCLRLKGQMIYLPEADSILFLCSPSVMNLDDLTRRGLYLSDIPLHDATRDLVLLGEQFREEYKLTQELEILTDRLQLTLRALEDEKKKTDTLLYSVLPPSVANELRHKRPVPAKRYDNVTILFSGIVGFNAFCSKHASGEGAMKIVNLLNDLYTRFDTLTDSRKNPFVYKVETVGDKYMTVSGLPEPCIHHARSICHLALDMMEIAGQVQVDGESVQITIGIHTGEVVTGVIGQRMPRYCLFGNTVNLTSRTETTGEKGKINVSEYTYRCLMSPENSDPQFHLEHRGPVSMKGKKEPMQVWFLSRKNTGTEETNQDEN
T1 sequence (P19686 1-690 partner): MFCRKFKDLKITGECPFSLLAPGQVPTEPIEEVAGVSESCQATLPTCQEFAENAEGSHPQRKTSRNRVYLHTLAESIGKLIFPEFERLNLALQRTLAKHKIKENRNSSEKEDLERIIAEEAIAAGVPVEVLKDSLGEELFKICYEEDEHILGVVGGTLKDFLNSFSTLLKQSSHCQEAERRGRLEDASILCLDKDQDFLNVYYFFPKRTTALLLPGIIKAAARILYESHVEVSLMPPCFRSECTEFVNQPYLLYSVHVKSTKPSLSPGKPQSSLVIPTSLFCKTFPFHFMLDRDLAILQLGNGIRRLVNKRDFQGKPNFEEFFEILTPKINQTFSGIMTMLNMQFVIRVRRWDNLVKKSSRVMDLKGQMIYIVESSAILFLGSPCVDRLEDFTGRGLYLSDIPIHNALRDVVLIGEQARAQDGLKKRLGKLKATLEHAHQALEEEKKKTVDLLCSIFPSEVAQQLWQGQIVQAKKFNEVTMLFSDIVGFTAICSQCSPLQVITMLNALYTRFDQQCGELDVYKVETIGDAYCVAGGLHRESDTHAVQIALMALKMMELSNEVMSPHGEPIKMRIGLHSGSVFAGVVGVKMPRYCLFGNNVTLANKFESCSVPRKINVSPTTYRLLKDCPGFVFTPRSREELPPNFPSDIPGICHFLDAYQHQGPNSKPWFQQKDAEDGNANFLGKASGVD
Assay type: cell-based
Protocol: The activity of soluble guanylate cyclase (sGC) was tested in an assay based on measuring phosphorylation of the protein kinase G (PKG) substrate vasodilator-stimulated phosphoprotein (VASP) in rat aortic smooth muscle cells. […] Dimethylsulfoxide (DMSO) vehicle and varying concentrations of the compound to be tested were then added. Following a 30 min incubation at 37° C., media was aspirated and the cells were rinsed with phosphate-buffered saline (PBS) and fixed with 4% formaldehyde in PBS by incubating at room temperature for 20 min. Cells were then washed with PBS and permeabilized for 10 min using 0.1% triton X-100 in PBS. Following PBS rinsing, the cells were blocked for 90 min at room temperature with blocking buffer. The buffer was aspirated and the cells were treated overnight at 4° C. with primary antibody (pSer239-VASP, rabbit polyclonal Ab) diluted 1:500 in blocking buffer. Following three washes with 0.05% Tween 20, the cells were treated for 1 h at room temperature with a fluorescent labeled secondary antibody (IRDye® 800CW Donkey Anti-Rabbit IgG) diluted 1:2500 in blocking buffer with 0.05% Tween 20. Following two washes with PBS, infrared fluorescence was measured using an Odyssey Infrared Imaging System. The activity of a test compound was determined as the pEC50 value which is the concentration able to increase by 50% (vs. Bmax) the phospho-VASP fluorescent signal. Front. Pharmacol., 5 Jul. 2012|doi: 10.3389/fphar.2012.00128, Volume 3 July, 2012, Article number 128.

SMILES | EC50
Cc1nc(C2CCN(C(=O)CO)CC2)ccc1COc1c(F)cc(F)cc1-c1cccc(N2CCC(C(=O)O)CC2)n1 [Example 33, 1-(6-(3,5-difluoro-2-((6-(1-(2-hydroxyacetyl)piperidin-4-yl)-2-methylpyridin-3-yl)methoxy)phenyl)pyridin-2-yl)piperidine-4-carboxylic acid, Sodium salt] | 15.8 nM
CCOC(=O)C1CCN(c2cccc(-c3cc(F)cc(F)c3OCc3ccc(C4CCN(CC#N)CC4)cc3C)n2)CC1 [Example 1, ethyl 1-(6-(2-((4-(1-(cyanomethyl)piperidin-4-yl)-2-methylbenzyl)oxy)-3,5-difluorophenyl)pyridin-2-yl)piperidine-4-carboxylate] | 0.631 nM
Cc1cc(C2CCN(C(=O)C3COC3)CC2)ccc1COc1c(F)cc(F)cc1-c1cccc(N2CCC(C(=O)O)CC2)n1 [Example 6, 1-(6-(3,5-difluoro-2-((2-methyl-4-(1-(oxetane-3-carbonyl)piperidin-4-yl)benzyl)oxy)phenyl)pyridin-2yl)piperidine-4-carboxylic acid] | 0.1 nM
Cc1nc(C2CCN(CC3CCOC3)CC2)ccc1COc1c(F)cc(F)cc1-c1cccc(N2CCC(C(=O)O)CC2)n1 (stereo not shown) [Example 23, 1-(6-(3,5-difluoro-2-((2-methyl-6-(1-((tetrahydrofuran-3-yl)methyl)piperidin-4-yl)pyridin-3-yl)methoxy)phenyl)pyridin-2-yl)piperidine-4-carboxylic acid] | 251 nM
Cc1nc(C2CCN(C3COC3)CC2)ccc1COc1c(F)cc(F)cc1-c1cccc(N2CCC(C(=O)O)CC2)n1 [Example 17, 1-(6-(3,5-difluoro-2-((2-methyl-6-(1-(oxetan-3-yl)piperidin-4-yl)pyridin-3-yl)methoxy)phenyl)pyridin-2-yl)piperidine-4-carboxylic acid] | 79.4 nM
Cc1nc(C2CCN(CC#N)CC2)ccc1COc1c(F)cc(F)cc1-c1cccc(N2CCC(C(=O)O)CC2)n1 [Example 27, 1-(6-(2-((6-(1-(cyanomethyl)piperidin-4-yl)-2-methylpyridin-3-yl)methoxy)-3,5-difluorophenyl)pyridin-2-yl)piperidine-4-carboxylic acid, Sodium salt] | 39.8 nM
Cc1cc(C2CCN(C3COC3)CC2)ccc1COc1c(Cl)cccc1-c1cccc(N2CCC(C(=O)O)CC2)n1 [Example 36, 1-(6-(3-chloro-2-((2-methyl-4-(1-(oxetan-3-yl)piperidin-4-yl)benzyl)oxy)phenyl)pyridin-2-yl)piperidine-4-carboxylic acid, Sodium salt] | 10 nM
Cc1cc(C2CCN(C3COC3)CC2)ccc1COc1c(F)cc(F)cc1-c1cccc(N2CCC(C(=O)O)CC2)n1 [Example 39, 1-(6-(3,5-difluoro-2-((2-methyl-4-(1-(oxetan-3-yl)piperidin-4-yl)benzyl)oxy)phenyl)pyridin-2-yl)piperidine-4-carboxylic acid, Sodium salt] | 0.794 nM

Next, values leading:

EC50 | SMILES
0.427 nM | Cc1cc(C2CCN(C(=O)[C@H]3CCOC3)CC2)ccc1COc1c(F)cc(F)cc1-c1cccc(N2CCC(C(=O)O)CC2)n1 [Example 72, (S)-1-(6-(3,5-difluoro-2-((2-methyl-4-(1-(tetrahydrofuran-3-carbonyl)piperidin-4-yl)benzyl)oxy)phenyl)pyridin-2-yl)piperidine-4-carboxylic acid, Sodium salt]
2.51 nM | Cc1cc(C2CCN(CCC(F)(F)F)CC2)ccc1COc1c(F)cc(F)cc1-c1cccc(N2CCC(C(=O)O)CC2)n1 [Example 54, 1-(6-(3,5-difluoro-2-((2-methyl-4-(1-(3,3,3-trifluoropropyl)piperidin-4-yl)benzyl)oxy)phenyl)pyridin-2-yl)piperidine-4-carboxylic acid, Sodium salt]
0.251 nM | Cc1cc(C2CCN(C(=O)C3CCOC3)CC2)ccc1COc1c(F)cc(F)cc1-c1cccc(N2CCC(C(=O)O)CC2)n1 (stereo not shown) [Example 69, 1-(6-(3,5-difluoro-2-((2-methyl-4-(1-(tetrahydrofuran-3-carbonyl)piperidin-4-yl)benzyl)oxy)phenyl)pyridin-2-yl)piperidine-4-carboxylic acid, Sodium salt]
0.398 nM | Cc1cc(C2CCN(C(=O)CC#N)CC2)ccc1COc1c(F)cc(F)cc1-c1cccc(N2CCC(C(=O)O)CC2)n1 [Example 63, 1-(6-(2-((4-(1-(2-cyanoacetyl)piperidin-4-yl)-2-methylbenzyl)oxy)-3,5-difluorophenyl)pyridin-2-yl)piperidine-4-carboxylic acid, Sodium salt]
0.316 nM | Cc1cc(C2CCN(C(=O)CC3CC3)CC2)ccc1COc1c(F)cc(F)cc1-c1cccc(N2CCC(C(=O)O)CC2)n1 [Example 66, 1-(6-(2-((4-(1-(2-cyclopropylacetyl)piperidin-4-yl)-2-methylbenzyl)oxy)-3,5-difluorophenyl)pyridin-2-yl)piperidine-4-carboxylic acid, Sodium salt]
0.126 nM | COCC(=O)N1CCC(c2ccc(COc3c(F)cc(F)cc3-c3cccc(N4CCC(C(=O)O)CC4)n3)c(C)c2)CC1 [Example 60, 1-(6-(3,5-difluoro-2-((4-(1-(2-methoxyacetyl)piperidin-4-yl)-2-methylbenzyl)oxy)phenyl)pyridin-2-yl)piperidine-4-carboxylic acid, Sodium salt]
20 nM | Cc1cc(C2CCN(C(=O)Cn3cncn3)CC2)ccc1COc1c(F)cc(F)cc1-c1cccc(N2CCC(C(=O)O)CC2)n1 [Example 84, 1-(6-(2-((4-(1-(2-(1H-1,2,4-triazol-1-yl)acetyl)piperidin-4-yl)-2-methylbenzyl)oxy)-3,5-difluorophenyl)pyridin-2-yl)piperidine-4-carboxylic acid, Sodium salt]
0.0794 nM | Cc1cc(C2CCN(C(=O)CO)CC2)ccc1COc1c(F)cc(F)cc1-c1cccc(N2CCC(C(=O)O)CC2)n1 [Example 57, 1-(6-(3,5-difluoro-2-((4-(1-(2-hydroxyacetyl)piperidin-4-yl)-2-methylbenzyl)oxy)phenyl)pyridin-2-yl)piperidine-4-carboxylic acid, Sodium salt]
2.51 nM | COc1cc(C2CCN(CC(F)(F)F)CC2)ccc1COc1c(F)cc(F)cc1-c1cccc(N2CCC(C(=O)O)CC2)n1 [Example 87, 1-(6-(3,5-difluoro-2-((2-methoxy-4-(1-(2,2,2-trifluoroethyl)piperidin-4-yl)benzyl)oxy)phenyl)pyridin-2-yl)piperidine-4-carboxylic acid, Sodium salt]
15.8 nM | COCCN1CCC(c2ccc(COc3c(F)cc(F)cc3-c3cccc(N4CCC(C(=O)O)CC4)n3)c(C)c2)CC1 [Example 48, 1-(6-(3,5-difluoro-2-((4-(1-(2-methoxyethyl)piperidin-4-yl)-2-methylbenzyl)oxy)phenyl)pyridin-2-yl)piperidine-4-carboxylic acid, Sodium salt]
7.94 nM | Cc1cc(OC2CCN(CC(F)(F)F)CC2)ccc1COc1c(F)cc(F)cc1-c1cccc(N2CCC(C(=O)O)CC2)n1 [Example 93, 1-(6-(3,5-difluoro-2-((2-methyl-4-((1-(2,2,2-trifluoroethyl)piperidin-4-yl)oxy)benzyl)oxy)phenyl)pyridin-2-yl)piperidine-4-carboxylic acid, Sodium salt]
